pIC50: −log10 of the molar value. Counter-ions that a name gives are not always drawn.
The molecules below were run on human primary T-cells, IL-2 stimulated proliferation (JAK-1 and JAK-3 dependent; reported as JAK3 activity) (assay: Human primary T-cell proliferation stimulated by IL-2 (Example 3)). Conditions: Homo sapiens, T-cell, tested under conditions described in Example 3 (IL-2 stimulated human primary T-cell proliferation); read-out: ability to inhibit JAK3 activity, IC50 range (Table V).
Type: cell-based
Procedure, shortened: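 Peripheral-blood human T-cells pre-activated via TCR/CD28, IL-2-starved overnight, then cultured 72 h at 37 °C with compound in Yssel's medium containing IL-2 (80 U/mL in cell suspension). Proliferation read as viable-cell ATP by CellTiter-Glo luminescence; reduction versus control taken as JAK pathway inhibition.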

Q: `Cc1cnc(Nc2cccc(OC(F)(F)F)c2)nc1Nc1ccc2oc(=O)[nH]c2c1` [Compound I-106, N4-(benzoxazolin-2-on-5-yl)-N2-(3-trifluoromethoxyphenyl)-5-methylpyrimidine-2,4-diamine trifluoroacetate salt] was tested. Which pIC50 did it give?
A: > 6.30

Q: How did the pIC50 turn out when `O=c1[nH]c2cc(Nc3nc(Nc4cccc(OC(F)(F)F)c4)ncc3F)ccc2o1` [Compound I-107, N4-(benzoxazolin-2-on-5-yl)-N2-(3-trifluoromethoxyphenyl)-5-fluoropyrimidine-2,4-diamine trifluoroacetate salt] was run?
A: 5.30 to 6.30

Q: `Cc1cnc(Nc2ccc(OC(F)(F)F)cc2)nc1Nc1ccc2oc(=O)[nH]c2c1` [Compound I-108, N4-(benzoxazolin-2-on-5-yl)-N2-(4-trifluoromethoxyphenyl)-5-methylpyrimidine-2,4-diamine trifluoroacetate salt] was tested. Which pIC50 did it give?
A: > 6.30

Q: How did the pIC50 turn out when `O=c1[nH]c2cc(Nc3nc(Nc4ccc(OC(F)(F)F)cc4)ncc3F)ccc2o1` [Compound I-109, N4-(benzoxazolin-2-on-5-yl)-N2-(4-trifluoromethoxyphenyl)-5-fluoropyrimidine-2,4-diamine trifluoroacetate salt] was run?
A: > 6.30

Q: How did the pIC50 turn out when `CCN1CCN(c2ccc(Nc3ncc(C)c(Nc4ccc5oc(=O)[nH]c5c4)n3)cc2C(F)(F)F)CC1` [Compound I-110, N4-(benzoxazolin-2-on-5-yl)-N2-[3-trifluoromethyl-4-(4-ethylpiperazin-1-yl)phenyl]-5-methylpyrimidine-2,4-diamine] was run?
A: > 6.30

Q: `COc1cc(Nc2ncc(F)c(Nc3ccc4oc(=O)[nH]c4c3)n2)cc(OC)c1OC` [Compound I-115, N4-(benzoxazolin-2-on-5-yl)-N2-(3,4,5-trimethoxyphenyl)-5-fluoropyrimidine-2,4-diamine] was tested. Which pIC50 did it give?
A: > 6.30

Q: `COc1ccc(Nc2ncc(C)c(Nc3ccc4oc(=O)[nH]c4c3)n2)cc1OC(F)F` [Compound I-116, N2-(3-(difluoromethoxy)-4-methoxyphenyl)-N4-(benzo[d]oxazol-2(3H)-on-5-yl)-5-methylpyrimidine-2,4-diamine] was tested. Which pIC50 did it give?
A: > 6.30

Q: With `Cc1cnc(Nc2ccc(NC3CC4CCC(C3)N4C)cc2)nc1Nc1ccc2oc(=O)[nH]c2c1` (centres unmarked) [Compound I-121, N4-(benzo[d]oxazol-2(3H)-on-5-yl)-N2-(4-(8-methyl-8-azabicyclo[3.2.1]octan-3-ylamino)phenyl)-5-methylpyrimidine-2,4-diamine] as the molecule, how does the pIC50 read?
A: 5.30 to 6.30

Q: With `Cc1cnc(Nc2ccc(N3CCC4CCC3N4C)cc2)nc1Nc1ccc2oc(=O)[nH]c2c1` (centres unmarked) [Compound I-123, N4-(benzo[d]oxazol-2(3H)-on-5-yl)-N2-(4-(8-methyl-2,8-diazabicyclo[3.2.1]octan-2-yl)phenyl)-5-methylpyrimidine-2,4-diamine] as the molecule, how does the pIC50 read?
A: > 6.30

Same assay, conditions: tested under conditions described in Example 3 (IL-2 stimulated human primary T-cell proliferation); read-out: ability to inhibit JAK3 activity, IC50 range (Table V)

Q: How did the pIC50 turn out when `Cn1c(=O)oc2ccc(Nc3nc(Nc4ccc(F)c(NS(C)(=O)=O)c4)ncc3F)cc21` [Compound I-91, N2-((4-fluoro-3-methylsulfonylamino)phenyl)-N4-(3-methyl-2-oxo-2,3-dihydrobenzo[d]oxazol-5-yl)-5-fluoropyrimidine-2,4-diamine] was run?
A: 5.30 to 6.30

Q: `Cn1c(=O)oc2cc(Nc3nc(Nc4ccc(F)c(NS(C)(=O)=O)c4)ncc3F)ccc21` [Compound I-92, N2-((4-fluoro-3-methylsulfonylamino)phenyl)-N4-(3-methyl-2-oxo-2,3-dihydrobenzo[d]oxazol-6-yl)-5-fluoropyrimidine-2,4-diamine] was tested. Which pIC50 did it give?
A: < 5.00

Q: How did the pIC50 turn out when `Cc1cnc(Nc2ccc(N(C)S(C)(=O)=O)cc2)nc1Nc1ccc2oc(=O)[nH]c2c1` [Compound I-93, N2-((4-methylsulfonyl-N-methylamino)phenyl)-N4-(2-oxo-2,3-dihydrobenzo[d]oxazol-5-yl)-5-methylpyrimidine-2,4-diamine] was run?
A: > 6.30

Q: With `Cc1cnc(Nc2ccc(N(C)S(C)(=O)=O)cc2)nc1Nc1ccc2oc(=O)n(C)c2c1` [Compound I-94, N2-((4-methylsulfonyl-N-methylamino)phenyl)-N4-(3-methyl-2-oxo-2,3-dihydrobenzo[d]oxazol-5-yl)-5-methylpyrimidine-2,4-diamine] as the molecule, how does the pIC50 read?
A: > 6.30

Q: How did the pIC50 turn out when `Cc1cnc(Nc2ccc(N(C)S(C)(=O)=O)cc2)nc1Nc1ccc2c(c1)oc(=O)n2C` [Compound I-95, N2-((4-methylsulfonyl-N-methylamino)phenyl)-N4-(3-methyl-2-oxo-2,3-dihydrobenzo[d]oxazol-6-yl)-5-methylpyrimidine-2,4-diamine] was run?
A: > 6.30

Q: `CN(c1ccc(Nc2ncc(F)c(Nc3ccc4oc(=O)[nH]c4c3)n2)cc1)S(C)(=O)=O` [Compound I-96, N2-((4-methylsulfonyl-N-methylamino)phenyl)-N4-(2-oxo-2,3-dihydrobenzo[d]oxazol-5-yl)-5-fluoropyrimidine-2,4-diamine] was tested. Which pIC50 did it give?
A: > 6.30

Q: `CN(c1ccc(Nc2ncc(F)c(Nc3ccc4c(c3)oc(=O)n4C)n2)cc1)S(C)(=O)=O` [Compound I-97, N2-((4-methylsulfonyl-N-methylamino)phenyl)-N4-(3-methyl-2-oxo-2,3-dihydrobenzo[d]oxazol-6-yl)-5-fluoropyrimidine-2,4-diamine] was tested. Which pIC50 did it give?
A: < 5.00

Q: How did the pIC50 turn out when `Cc1cnc(Nc2cccc(S(N)(=O)=O)c2)nc1Nc1ccc2[nH]c(=O)oc2c1` [Compound I-98, N2-((3-aminosulfonyl)phenyl)-N4-(2-oxo-2,3-dihydrobenzo[d]oxazol-6-yl)-5-methylpyrimidine-2,4-diamine] was run?
A: > 6.30

Q: `Cc1cnc(Nc2ccc(S(N)(=O)=O)cc2)nc1Nc1ccc2[nH]c(=O)oc2c1` [Compound I-99, N2-((4-aminosulfonyl)phenyl)-N4-(2-oxo-2,3-dihydrobenzo[d]oxazol-6-yl)-5-methylpyrimidine-2,4-diamine] was tested. Which pIC50 did it give?
A: > 6.30

Q: How did the pIC50 turn out when `Cc1cnc(Nc2cccc(S(C)(=O)=O)c2)nc1Nc1ccc2[nH]c(=O)oc2c1` [Compound I-100, N2-((3-methylsulfonyl)phenyl)-N4-(2-oxo-2,3-dihydrobenzo[d]oxazol-6-yl)-5-methylpyrimidine-2,4-diamine] was run?
A: > 6.30

Q: `Cc1cnc(Nc2ccc(S(C)(=O)=O)cc2)nc1Nc1ccc2[nH]c(=O)oc2c1` [Compound I-101, N2-((4-methylsulfonyl)phenyl)-N4-(2-oxo-2,3-dihydrobenzo[d]oxazol-6-yl)-5-methylpyrimidine-2,4-diamine] was tested. Which pIC50 did it give?
A: > 6.30

Q: `Cc1cnc(Nc2cccc(NS(C)(=O)=O)c2)nc1Nc1ccc2[nH]c(=O)oc2c1` [Compound I-102, N2-((3-methylsulfonylamino)phenyl)-N4-(2-oxo-2,3-dihydrobenzo[d]oxazol-6-yl)-5-methylpyrimidine-2,4-diamine] was tested. Which pIC50 did it give?
A: > 6.30

Q: `Cc1cnc(Nc2ccc(NS(C)(=O)=O)cc2)nc1Nc1ccc2[nH]c(=O)oc2c1` [Compound I-103, N2-((4-methylsulfonylamino)phenyl)-N4-(2-oxo-2,3-dihydrobenzo[d]oxazol-6-yl)-5-methylpyrimidine-2,4-diamine] was tested. Which pIC50 did it give?
A: < 5.00

Q: `Cc1ccc(Nc2ncc(C)c(Nc3ccc4[nH]c(=O)oc4c3)n2)cc1NS(C)(=O)=O` [Compound I-104, N2-((3-methylsulfonylamino-4-methyl)phenyl)-N4-(2-oxo-2,3-dihydrobenzo[d]oxazol-6-yl)-5-methylpyrimidine-2,4-diamine] was tested. Which pIC50 did it give?
A: > 6.30

Q: `Cc1cnc(Nc2ccc(F)c(NS(C)(=O)=O)c2)nc1Nc1ccc2[nH]c(=O)oc2c1` [Compound I-105, N2-((4-fluoro-3-methylsulfonylamino)phenyl)-N4-(2-oxo-2,3-dihydrobenzo[d]oxazol-6-yl)-5-methylpyrimidine-2,4-diamine] was tested. Which pIC50 did it give?
A: < 5.00

Q: With `Cc1cnc(Nc2ccc(S(=O)(=O)NC(C)(C)C)cc2)nc1Nc1ccc2oc(=O)[nH]c2c1` [Compound I-112, N4-(benzoxazolin-2-on-5-yl)-N2-[4-N-(t-butyl)aminosulfonylphenyl]-5-methylpyrimidine-2,4-diamine] as the molecule, how does the pIC50 read?
A: > 6.30

Q: With `Cc1ccc(Nc2ncc(C)c(Nc3ccc4oc(=O)[nH]c4c3)n2)cc1S(=O)(=O)NC(C)(C)C` [Compound I-113, N4-(benzoxazolin-2-on-5-yl)-N2-[4-methyl-3-N-(t-butyl)aminosulfonylphenyl]-5-methylpyrimidine-2,4-diamine] as the molecule, how does the pIC50 read?
A: > 6.30

Q: With `Cc1cnc(Nc2cccc(S(=O)(=O)NC(C)C)c2)nc1Nc1ccc2oc(=O)[nH]c2c1` [Compound I-114, N4-(benzoxazolin-2-on-5-yl)-N2-[3-N-(i-propyl)aminosulfonylphenyl]-5-methylpyrimidine-2,4-diamine] as the molecule, how does the pIC50 read?
A: > 6.30

Q: How did the pIC50 turn out when `Cc1cnc(Nc2ccc(S(=O)(=O)C(F)(F)F)cc2)nc1Nc1ccc2oc(=O)[nH]c2c1` [Compound I-117, N4-(benzo[d]oxazol-2(3H)-on-5-yl)-N2-(4-trifluoromethylsulfonyl)phenyl-5-methylpyrimidine-2,4-diamine] was run?
A: > 6.30

Q: `Cc1cnc(Nc2cccc(S(=O)(=O)C(F)(F)F)c2)nc1Nc1ccc2oc(=O)[nH]c2c1` [Compound I-118, N4-(benzo[d]oxazol-2(3H)-on-5-yl)-N2-(3-trifluoromethylsulfonyl)phenyl-5-methylpyrimidine-2,4-diamine] was tested. Which pIC50 did it give?
A: > 6.30

Q: How did the pIC50 turn out when `COc1cc(Nc2ncc(C)c(Nc3ccc4oc(=O)[nH]c4c3)n2)cc(OC)c1OC` [Compound I-119, N4-(benzo[d]oxazol-2(3H)-on-5-yl)-N2-(3,4,5-trimethoxy)phenyl-5-methylpyrimidine-2,4-diamine] was run?
A: > 6.30

Q: With `Cc1cc(Nc2ncc(C)c(Nc3ccc4oc(=O)[nH]c4c3)n2)ccc1N1CCN2CCC1CC2` [Compound I-120, N4-(benzo[d]oxazol-2(3H)-on-5-yl)-N2-((4-(1,4-diazabicyclo[3.2.2]nonan-4-yl)-3-methyl)phenyl)-5-methylpyrimidine-2,4-diamine] as the molecule, how does the pIC50 read?
A: > 6.30

Q: How did the pIC50 turn out when `Cc1cc(Nc2ncc(C)c(Nc3ccc4oc(=O)[nH]c4c3)n2)ccc1N1CCN2CCCCC2C1` (centres unmarked) [Compound I-122, N4-(benzo[d]oxazol-2(3H)-on-5-yl)-N2-((4-(dihydro-1H-pyrido[1,2-a]pyrazin-2(6H,7H,8H,9H,9aH)-yl)-3-methyl)phenyl)-5-methylpyrimidine-2,4-diamine] was run?
A: > 6.30

— patent publication US10005767B2, “Compositions and methods for inhibition of the JAK pathway” (Rigel Pharmaceuticals, Inc., priority 2009, dated 2018)
